PubChem BioAssay (NCI)
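Compound exposure: 48 hours, 5 concentrations, 96-well plates. TGI is the concentration that stops growth completely.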

What was measured:
Test in all cases: NCI-60 cell line screen, 48 h
786-0 renal = system: 786-0 renal
A498 renal = system: A498 renal
BT-549 breast = system: BT-549 breast
HCC-2998 colon = system: HCC-2998 colon
KM12 colon = system: KM12 colon
MDA-MB-231 breast = system: MDA-MB-231 breast
MDA-MB-435 = system: MDA-MB-435
OVCAR-3 ovarian = system: OVCAR-3 ovarian
OVCAR-5 ovarian = system: OVCAR-5 ovarian
PC-3 prostate = system: PC-3 prostate
RXF 393 renal = system: RXF 393 renal
SF-268 CNS = system: SF-268 CNS
SK-MEL-5 melanoma = system: SK-MEL-5 melanoma
SK-OV-3 ovarian = system: SK-OV-3 ovarian
SNB-75 CNS = system: SNB-75 CNS
SW-620 colon = system: SW-620 colon
U251 CNS = system: U251 CNS
UO-31 renal = system: UO-31 renal

SMILES | TGI (786-0 renal) [µM] | TGI (A498 renal) [µM] | TGI (BT-549 breast) [µM] | TGI (HCC-2998 colon) [µM] | TGI (KM12 colon) [µM] | TGI (MDA-MB-231 breast) [µM] | TGI (MDA-MB-435) [µM] | TGI (OVCAR-3 ovarian) [µM] | TGI (OVCAR-5 ovarian) [µM] | TGI (PC-3 prostate) [µM] | TGI (RXF 393 renal) [µM] | TGI (SF-268 CNS) [µM] | TGI (SK-MEL-5 melanoma) [µM] | TGI (SK-OV-3 ovarian) [µM] | TGI (SNB-75 CNS) [µM] | TGI (SW-620 colon) [µM] | TGI (U251 CNS) [µM] | TGI (UO-31 renal) [µM]
CC(C)[Si]1(C(C)C)OCC2OC(n3ccc(=O)[nH]c3=O)C([Se]c3ccccc3)C2O[Si](C(C)C)(C(C)C)O1 (configuration not stated) | 7.77 | 18.9 | 23.7 | 3 | 6.62 | 7.79 | 17.3 | 9.73 | 22.8 | 11.9 | 9.65 | 10.3 | 9.59 | 31.2 | 2.42 | 6.62 | 4.87 | 21.5
O=c1[nH][nH]c(=O)c2c1ccc1oc3ccccc3c12 | > 100 | > 100 | > 100 | > 100 | > 100 | > 100 | > 100 | > 100 | > 100 | > 100 | > 100 | > 100 | > 100 | > 100 | > 100 | > 100 | > 100 | > 100
O=C(Cn1c2ccc(Br)cc2c2nc3ccccc3nc21)Nc1ccccc1 | 28.7 | > 100 | > 100 | > 100 | > 100 | 34.2 | > 100 | > 100 | > 100 | 46.5 | 68.7 | > 100 | > 100 | > 100 | 89.4 | 66.8 | 73.5 | > 100
O=C1CSC(c2ccccc2O)N1c1ccc(-n2c(-c3ccccc3)nc3ccccc3c2=O)cc1 (configuration not stated) | > 100 | > 100 | 61.5 | > 100 | 97.7 | 37.5 | 81.5 | 41.5 | > 100 | 58.7 | > 100 | > 100 | 35.9 | 95.3 | > 100 | > 100 | > 100 | 77.2
CCOC(=O)c1nc2ccc(C(F)(F)F)cc2nc1Nc1ccc(OC)cc1 | > 100 | > 100 | 86.4 | > 100 | > 100 | 50.6 | > 100 | > 100 | > 100 | > 100 | 70.1 | > 100 | > 100 | – | > 100 | > 100 | > 100 | > 100
CCOC(=O)c1c[nH]c(C(=O)C=[N+]=[N-])c1C1CCN(CC)C1=S (configuration not stated) | > 100 | > 100 | > 100 | > 100 | > 100 | > 100 | > 100 | > 100 | > 100 | > 100 | > 100 | > 100 | > 100 | > 100 | > 100 | > 100 | > 100 | > 100
O=C1NC(N/N=C\c2ccccc2)=N/C1=C/c1ccccc1 | > 100 | > 100 | 71.2 | 40 | > 100 | > 100 | > 100 | 94.9 | 44.5 | 98.4 | 73.1 | > 100 | > 100 | > 100 | 63.2 | > 100 | > 100 | > 100
CC(=O)[C@H]1[C@H](O)C[C@@]2(C)[C@@H]3CCc4cc(O)c(OC5OC(CO)C(O)C(O)C5O)cc4C3(C)C(=O)C[C@]12C (some centres not stated) | > 100 | > 100 | > 100 | > 100 | > 100 | > 100 | > 100 | > 100 | > 100 | > 100 | > 100 | > 100 | > 100 | > 100 | > 100 | > 100 | > 100 | > 100
Cc1sc2nc3n(c(=O)c2c1C)N=CN(c1ccc(Cl)cc1)C3 | > 100 | > 100 | > 100 | > 100 | > 100 | > 100 | > 100 | > 100 | > 100 | > 100 | > 100 | > 100 | > 100 | > 100 | > 100 | > 100 | > 100 | > 100
COc1ccc(COCC[C@H](C)OC2OC(CO)C(O)C(O)C2O)cc1 (some centres not stated) | > 100 | > 100 | > 100 | > 100 | > 100 | > 100 | > 100 | > 100 | > 100 | > 100 | > 100 | > 100 | > 100 | > 100 | > 100 | > 100 | > 100 | > 100
O=CNc1ccccc1OCCOc1ccccc1NC=O | > 100 | > 100 | > 100 | > 100 | > 100 | > 100 | > 100 | > 100 | > 100 | > 100 | > 100 | > 100 | > 100 | > 100 | > 100 | > 100 | > 100 | > 100
CN=c1sc2nc(C#N)c(C#N)nc2n1C | > 60 | 35.2 | 62.8 | 55.8 | > 67.8 | > 80.7 | 52.1 | 72.1 | 51.6 | > 100 | 40.5 | > 94.7 | 35.4 | 49.2 | 51.4 | 36.2 | 44.9 | 51.3
CC(C)(C)OC(=O)CCCCCNC(=O)CCCCCNC(=O)CCC(CN(CC(=O)OCc1ccccc1)CC(=O)OCc1ccccc1)N(CC(=O)OCc1ccccc1)CC(=O)OCc1ccccc1 (configuration not stated) | > 100 | > 100 | > 100 | > 100 | > 100 | > 100 | > 100 | > 100 | > 100 | > 100 | > 100 | > 100 | > 100 | > 100 | 81.9 | > 100 | > 100 | > 100
Nc1ccccc1C(=O)N=Nc1c(O)[nH]c2ccccc12 | > 100 | > 100 | > 100 | > 100 | > 100 | > 100 | > 100 | > 100 | > 100 | > 100 | > 100 | > 100 | > 100 | > 100 | 81 | – | > 100 | > 100
CCOP(=O)(O)C(Nc1ccc(N=Nc2ccccc2)cc1)c1cccc(C(Nc2ccc(N=Nc3ccccc3)cc2)P(=O)(O)OCC)c1 (configuration not stated) | > 100 | 88.6 | > 100 | 71.3 | > 100 | > 100 | > 100 | > 100 | > 100 | 67.5 | > 100 | > 100 | > 100 | > 100 | > 100 | > 100 | > 100 | > 100
CC(C)(C)OC(=O)N1CCCC1C(=O)NC(c1ccccc1)c1ccccc1 (configuration not stated) | > 100 | > 100 | > 100 | > 100 | > 100 | > 100 | > 100 | > 100 | > 100 | > 100 | > 100 | > 100 | > 100 | > 100 | > 100 | > 100 | > 100 | > 100
COc1ccc2nc3ccc(OC)cc3c(SCCCl)c2c1 | 30.1 | > 91.5 | > 100 | > 100 | > 71 | 99.3 | > 49.5 | > 100 | > 40.8 | > 100 | > 48.1 | > 100 | > 100 | > 100 | > 96.8 | > 100 | > 100 | > 100
COc1cc2cc(C(=O)N3CC(CCl)c4ccc([N+](C)(C)Cc5ccccc5[N+](=O)[O-])cc43)[nH]c2c(OC)c1OC (configuration not stated) | > 36.3 | 1.37 | 6.29 | 9 | 10.2 | > 31.9 | 5.17 | > 24.6 | > 31.3 | 25.9 | 2.11 | 9.1 | 3.3 | 30.1 | 24.7 | > 75.9 | 26.4 | 5.17
COC(=O)[C@@](NC(=O)OCc1ccccc1)([C@H](C)O)C(F)(F)F | > 100 | > 100 | > 100 | > 100 | > 100 | > 100 | > 100 | > 100 | > 100 | > 100 | > 100 | > 100 | > 100 | > 100 | > 100 | > 100 | > 100 | > 100
COc1cc(OC)c2c(=O)c3cccc(C)c3n(C)c2c1 | > 100 | > 100 | > 100 | > 100 | > 100 | > 100 | > 100 | > 100 | > 100 | > 100 | > 100 | > 100 | 60.6 | > 100 | > 100 | > 100 | > 100 | –
O=C(NCCNCCNC(=O)c1cc(-c2ccccc2)nc2ccccc12)c1cc(-c2ccccc2)nc2ccccc12 | 3.39 | 6.54 | 28.6 | 3.14 | 4.03 | 7.32 | 3.34 | 5.73 | 4.91 | 8.88 | 3.56 | 9.55 | 3.18 | 17.7 | 3.99 | 3.25 | 4.07 | 6.94
COC(=O)C(=O)Nc1cc2c3c(c1)Oc1cccc4c1C3(C)c1c(cccc1O2)O4 | > 79.7 | > 100 | > 100 | > 100 | > 100 | > 100 | > 100 | > 100 | > 100 | > 100 | 56.9 | > 100 | > 100 | > 100 | > 100 | > 100 | > 100 | > 100
CC(C)(C)O/N=C/c1cc(NC(=S)c2ccsc2)ccc1Cl | 31.6 | 24.9 | 27 | 27.6 | 23.3 | 32.1 | 38.5 | 28.1 | 32.9 | 26.1 | 36.8 | 38.2 | 16.9 | 46.8 | 77.4 | 55.2 | 43.8 | 24.6
Cc1c(/C=N/NC(=S)N2CCCCC2)c(=O)n(-c2ccccc2)n1C | > 100 | > 100 | > 100 | > 100 | > 100 | > 100 | > 100 | > 100 | > 100 | > 100 | 97.3 | > 100 | > 100 | > 100 | > 100 | > 100 | > 100 | > 100
Cc1cn(C2CC(N=[N+]=[N-])C(COP(=O)(O)OCC3OC(n4cc(F)c(=O)[nH]c4=O)CC3O)O2)c(=O)[nH]c1=O (configuration not stated) | > 100 | > 100 | > 100 | > 100 | > 45.5 | > 100 | > 100 | > 100 | > 100 | > 100 | > 100 | > 100 | > 100 | > 100 | 21.6 | > 100 | > 100 | > 100
